Results: ChEMBL document CHEMBL3414441, “Development of multifunctional, heterodimeric isoindoline-1,3-dione derivatives as cholinesterase and β-amyloid aggregation inhibitors with neuroprotective properties” (Eur J Med Chem, 2015)
The source made the active and inactive calls. The calls are words filed in the database; no cut-off is given here.

How the values were obtained:
Acetylcholinesterase [1] = target: T1, Acetylcholinesterase (Homo sapiens, UniProt P22303); test: Inhibition of human recombinant AChE at 10 uM after 5 mins by Ellman's method
[2] = target: Cholinesterase (Equus caballus) (UniProt P81908); test: Inhibition of equine serum BuChE at 10 uM after 5 mins by Ellman's method
Acetylcholinesterase [3] = target: Acetylcholinesterase (Electrophorus electricus, UniProt O42275)
Description: Inhibition of Electrophorus electricus AChE after 5 mins by Ellman's method

Cholinesterase = Cholinesterase (Equus caballus, UniProt P81908)
Description: Inhibition of equine serum BuChE after 5 mins by Ellman's method

Acetylcholinesterase [4] = target: T1, Acetylcholinesterase
Description: Inhibition of human recombinant AChE after 5 mins by Ellman's method

[5] = target: Acetylcholinesterase (Electrophorus electricus) (UniProt O42275); test: Non-competitive inhibition of Electrophorus electricus AChE after 5 mins by Lineweaver-Burk plot analysis
[6] = target: Acetylcholinesterase (Electrophorus electricus) (UniProt O42275); test: Inhibition of Electrophorus electricus AChE at 10 uM after 5 mins by Ellman's method
[7] = target: Amyloid-beta precursor protein (Homo sapiens) (UniProt P05067); test: Inhibition of human recombinant amyloid beta (1 to 42) self-induced aggregation after 24 hrs by thioflavin-T based fluorometric assay
[8] = target: Amyloid-beta precursor protein (Homo sapiens) (UniProt P05067); test: Neuroprotective activity in human SH-SY5Y cells assessed as inhibition amyloid beta (1 to 42)-induced cytotoxicity at 1 uM after 48 hrs; format: functional, cell-based; design: scale not given: the % may be the effect or the level left
[9] = target: Amyloid-beta precursor protein (Homo sapiens) (UniProt P05067); test: Neuroprotective activity in human SH-SY5Y cells assessed as inhibition amyloid beta (1 to 42)-induced cytotoxicity at 3 uM after 48 hrs; format: functional, cell-based; design: scale not given: the % may be the effect or the level left
[10] = target: Amyloid-beta precursor protein (Homo sapiens) (UniProt P05067); test: Neuroprotective activity in human SH-SY5Y cells assessed as inhibition amyloid beta (1 to 42)-induced cytotoxicity at 10 uM after 48 hrs; format: functional, cell-based
[11] = Cytotoxicity against human SH-SY5Y cells assessed as cell viability at 0.1 to 10 uM after 48 hrs by MTS assay; format: cell-based

Chain of Acetylcholinesterase (Electrophorus electricus) (O42275 24-633 limits assumed): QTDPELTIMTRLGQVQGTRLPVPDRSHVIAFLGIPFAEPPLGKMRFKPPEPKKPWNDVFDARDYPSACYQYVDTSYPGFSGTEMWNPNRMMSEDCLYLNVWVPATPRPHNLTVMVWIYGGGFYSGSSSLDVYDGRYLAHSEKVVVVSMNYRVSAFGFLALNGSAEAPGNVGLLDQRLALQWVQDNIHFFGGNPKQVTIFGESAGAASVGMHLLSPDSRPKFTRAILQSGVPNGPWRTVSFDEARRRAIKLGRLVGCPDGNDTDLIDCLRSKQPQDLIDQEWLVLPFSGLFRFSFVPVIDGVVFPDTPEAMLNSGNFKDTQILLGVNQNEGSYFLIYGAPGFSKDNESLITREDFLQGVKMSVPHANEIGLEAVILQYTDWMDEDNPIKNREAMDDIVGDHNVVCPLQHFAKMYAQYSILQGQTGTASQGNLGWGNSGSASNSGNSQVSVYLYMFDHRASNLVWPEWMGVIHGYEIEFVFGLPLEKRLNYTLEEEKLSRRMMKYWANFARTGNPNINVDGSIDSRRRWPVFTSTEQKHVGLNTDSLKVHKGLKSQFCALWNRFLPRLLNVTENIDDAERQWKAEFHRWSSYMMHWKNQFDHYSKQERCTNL
Chain of Acetylcholinesterase (Electrophorus electricus, UniProt O42275) (O42275 whole entry): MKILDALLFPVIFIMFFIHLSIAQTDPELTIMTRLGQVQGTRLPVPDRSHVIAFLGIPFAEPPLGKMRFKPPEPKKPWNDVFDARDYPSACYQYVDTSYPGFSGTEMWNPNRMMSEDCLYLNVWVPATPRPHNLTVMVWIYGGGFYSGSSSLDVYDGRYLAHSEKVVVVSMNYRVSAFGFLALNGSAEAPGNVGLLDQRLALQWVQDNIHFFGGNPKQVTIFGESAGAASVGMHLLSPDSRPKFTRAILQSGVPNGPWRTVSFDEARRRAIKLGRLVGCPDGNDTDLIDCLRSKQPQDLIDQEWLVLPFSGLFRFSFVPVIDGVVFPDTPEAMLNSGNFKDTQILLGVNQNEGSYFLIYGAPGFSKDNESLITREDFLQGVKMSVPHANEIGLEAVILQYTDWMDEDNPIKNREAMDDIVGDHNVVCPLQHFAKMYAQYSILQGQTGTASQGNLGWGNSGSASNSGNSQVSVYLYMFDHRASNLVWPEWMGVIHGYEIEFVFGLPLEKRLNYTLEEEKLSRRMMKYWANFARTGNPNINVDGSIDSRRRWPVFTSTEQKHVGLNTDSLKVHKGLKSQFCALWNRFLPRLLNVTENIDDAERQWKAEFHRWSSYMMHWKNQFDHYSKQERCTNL
T1 sequence (P22303 whole entry): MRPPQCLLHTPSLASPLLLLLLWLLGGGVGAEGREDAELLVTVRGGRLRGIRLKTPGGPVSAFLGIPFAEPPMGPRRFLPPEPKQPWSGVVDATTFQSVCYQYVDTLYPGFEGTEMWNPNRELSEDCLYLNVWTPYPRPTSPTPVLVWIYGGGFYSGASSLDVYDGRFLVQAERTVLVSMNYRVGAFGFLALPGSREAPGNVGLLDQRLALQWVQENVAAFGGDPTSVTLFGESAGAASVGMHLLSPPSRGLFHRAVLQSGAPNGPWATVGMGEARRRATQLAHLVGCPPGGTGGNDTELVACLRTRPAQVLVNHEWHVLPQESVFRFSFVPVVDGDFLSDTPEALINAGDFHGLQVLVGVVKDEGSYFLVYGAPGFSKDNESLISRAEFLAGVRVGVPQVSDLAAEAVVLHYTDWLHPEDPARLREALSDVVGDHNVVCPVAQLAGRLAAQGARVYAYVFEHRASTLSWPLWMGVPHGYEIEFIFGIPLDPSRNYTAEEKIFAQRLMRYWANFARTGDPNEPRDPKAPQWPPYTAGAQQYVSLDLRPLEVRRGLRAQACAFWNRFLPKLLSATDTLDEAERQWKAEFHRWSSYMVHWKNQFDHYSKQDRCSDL
Chain of Amyloid-beta precursor protein (Homo sapiens) (P05067 whole entry): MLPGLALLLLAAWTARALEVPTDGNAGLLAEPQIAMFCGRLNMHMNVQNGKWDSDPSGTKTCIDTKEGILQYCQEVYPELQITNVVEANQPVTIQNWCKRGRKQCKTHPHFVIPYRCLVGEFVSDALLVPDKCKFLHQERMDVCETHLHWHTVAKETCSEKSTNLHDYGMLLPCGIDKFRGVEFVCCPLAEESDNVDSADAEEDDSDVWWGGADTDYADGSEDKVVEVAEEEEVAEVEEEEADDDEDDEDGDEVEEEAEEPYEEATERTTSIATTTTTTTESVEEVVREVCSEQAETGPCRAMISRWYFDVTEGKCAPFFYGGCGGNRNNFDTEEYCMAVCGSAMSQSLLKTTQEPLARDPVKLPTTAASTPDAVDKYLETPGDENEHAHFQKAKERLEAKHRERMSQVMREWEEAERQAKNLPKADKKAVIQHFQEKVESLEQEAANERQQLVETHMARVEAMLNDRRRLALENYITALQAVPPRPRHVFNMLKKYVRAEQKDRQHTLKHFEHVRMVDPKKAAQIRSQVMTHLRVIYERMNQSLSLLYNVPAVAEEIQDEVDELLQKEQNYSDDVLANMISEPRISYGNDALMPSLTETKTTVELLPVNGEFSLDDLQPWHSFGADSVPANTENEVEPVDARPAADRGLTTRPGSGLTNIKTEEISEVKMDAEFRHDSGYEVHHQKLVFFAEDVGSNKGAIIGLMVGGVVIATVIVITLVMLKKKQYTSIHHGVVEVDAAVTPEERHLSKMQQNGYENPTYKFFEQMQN
Chain of Cholinesterase (P81908 whole entry): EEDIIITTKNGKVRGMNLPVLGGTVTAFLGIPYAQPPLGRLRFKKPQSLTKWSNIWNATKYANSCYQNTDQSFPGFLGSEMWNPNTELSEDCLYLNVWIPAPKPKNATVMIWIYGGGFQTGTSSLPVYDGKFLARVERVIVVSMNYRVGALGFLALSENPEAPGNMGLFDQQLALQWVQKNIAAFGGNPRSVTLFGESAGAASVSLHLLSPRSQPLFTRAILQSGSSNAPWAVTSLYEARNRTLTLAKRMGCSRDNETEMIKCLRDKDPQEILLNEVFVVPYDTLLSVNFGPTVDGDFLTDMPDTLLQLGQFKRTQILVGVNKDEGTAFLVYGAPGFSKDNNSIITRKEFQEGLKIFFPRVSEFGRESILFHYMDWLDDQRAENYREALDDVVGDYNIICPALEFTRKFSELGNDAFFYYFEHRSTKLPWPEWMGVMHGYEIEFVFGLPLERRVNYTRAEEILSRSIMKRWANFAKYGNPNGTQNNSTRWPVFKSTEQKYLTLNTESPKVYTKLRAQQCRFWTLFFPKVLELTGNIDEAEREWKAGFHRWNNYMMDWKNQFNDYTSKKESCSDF
Chain of Cholinesterase (Equus caballus) (P81908 whole entry): as above

SMILES	inhibition [2]	IC50 (Acetylcholinesterase [3])	IC50 (Cholinesterase)	IC50 (Acetylcholinesterase [4])	further results
O=C1c2ccccc2C(=O)N1CCCCNCc1ccc(F)cc1F	< 50%	8.18 µM			inhibition (Acetylcholinesterase [1]): < 50%
O=C1c2ccccc2C(=O)N1CCCCCCCNCc1ccc(F)cc1		0.361 µM	1.58 µM	0.437 µM	
O=C1c2ccccc2C(=O)N1CCCCCCCNCc1ccc(F)cc1F		0.171 µM	1.87 µM	0.381 µM	
O=C1c2ccccc2C(=O)N1CCCCCCNCc1ccc(F)cc1		0.694 µM	9.2 µM	3.17 µM	
O=C1c2ccccc2C(=O)N1CCCCNCc1ccccc1F	< 50%	2.03 µM			inhibition (Acetylcholinesterase [1]): < 50%
O=C1c2ccccc2C(=O)N1CCCCCCCNCc1cccc(Cl)c1		0.502 µM	2.63 µM	0.651 µM	
O=C1c2ccccc2C(=O)N1CCCCNCc1cccc(Cl)c1	< 50%	1.97 µM			inhibition (Acetylcholinesterase [1]): < 50%
O=C1c2ccccc2C(=O)N1CCCCCCCCNCc1ccccc1F		0.438 µM	2.09 µM	0.545 µM	
O=C1c2ccccc2C(=O)N1CCCCCCCNCc1ccccc1		0.249 µM	1.71 µM	0.303 µM	
O=C1c2ccccc2C(=O)N1CCCCCCNCc1ccccc1F	< 50%	0.113 µM		0.941 µM	
O=C1c2ccccc2C(=O)N1CCCCCNCc1cccc(Cl)c1	< 50%	0.034 µM		0.16 µM	inhibition [5]: Active
O=C1c2ccccc2C(=O)N1CCCCCCCNCc1ccccc1F		0.119 µM	2.38 µM	0.329 µM	
O=C1c2ccccc2C(=O)N1CCCCCNCc1ccccc1F	< 50%	0.041 µM		0.168 µM	
O=C1c2ccccc2C(=O)N1CCCCCNCc1ccccc1	< 50%	0.078 µM		0.202 µM	
O=C1c2ccccc2C(=O)N1CCCCNCc1ccc(F)cc1	< 50%				inhibition (Acetylcholinesterase [1]): < 50%; inhibition [6]: < 50%
O=C1c2ccccc2C(=O)N1CCCCCNCc1ccc(F)cc1	< 50%	0.219 µM		0.268 µM	inhibition [7]: Dose-dependent effect; Activity [8]: 84.5%; Activity [9]: 76.2%; Activity [10]: inactive; Activity [11]: Non-toxic
O=C1c2ccccc2C(=O)N1CCCCCCCCNCc1cccc(Cl)c1		0.729 µM	1.48 µM	0.686 µM	
O=C1c2ccccc2C(=O)N1CCCCCCNCc1ccc(F)cc1F		0.229 µM	8.09 µM	1.6 µM	Activity [8]: 80.3%; Activity [9]: 66.5%; Activity [10]: inactive; Activity [11]: Non-toxic
O=C1c2ccccc2C(=O)N1CCCCNCc1ccccc1	< 50%	5.28 µM			inhibition (Acetylcholinesterase [1]): < 50%
O=C1c2ccccc2C(=O)N1CCCCCCCCNCc1ccccc1		0.773 µM	1.23 µM	0.496 µM	inhibition [5]: Active
O=C1c2ccccc2C(=O)N1CCCCCNCc1ccc(F)cc1F	< 50%	0.1 µM		0.258 µM	inhibition [5]: Active
O=C1c2ccccc2C(=O)N1CCCCCCCCNCc1ccc(F)cc1F		0.601 µM	1.06 µM	0.578 µM	
O=C1c2ccccc2C(=O)N1CCCCCCCCNCc1ccc(F)cc1		2.23 µM	1.69 µM		inhibition (Acetylcholinesterase [1]): < 50%
O=C1c2ccccc2C(=O)N1CCCCCCNCc1cccc(Cl)c1		0.18 µM	4.6 µM	2.01 µM	
O=C1c2ccccc2C(=O)N1CCCCCCNCc1ccccc1	< 50%	0.216 µM		2.1 µM	
